Test results: patent US5674886A, “Triazolylated teritiary amine compound or salt thereof” (Yamanouchi Pharmaceutical Co., Ltd., priority 1991, dated 1997)

Key:
[1] = tested on: cortisol production, rabbit adrenal cultured cells; assay: In vitro inhibition of cortisol production (ACTH-stimulated rabbit adrenal cultured cells); assay type: cell-based; settings: Oryctolagus cuniculus
Procedure: (5) In vitro inhibition of cortisol production:
The inhibitory activity was measured in accordance with the method described in Endocrinology, 114 (2) 486 (1984). The inhibitory activity of a test compound was determined based on inhibition of the cortisol production produced by stimulation of first-generation of rabit adrenal cultured cells by ACTH. The amount of cortisol was measured by RIA.
4. In vitro inhibition of cortisol production in rabbit:
IC50 value of the compounds for in vitro inhibition of cortisol production was obtained by the above-mentioned experimental method (5), and the results obtained are shown in Table 3.

[2] = target: T1, aromatase from human placental microsomes (Homo sapiens, UniProt P11511); assay: In vitro inhibition of aromatase in human placenta microsomes; assay type: biochemical; settings: [1,2-3H] androstenedione
T1 construct: in human placenta microsomes; from tissue; host or cells: human placenta, microsomes
T1 sequence (P11511 1-503): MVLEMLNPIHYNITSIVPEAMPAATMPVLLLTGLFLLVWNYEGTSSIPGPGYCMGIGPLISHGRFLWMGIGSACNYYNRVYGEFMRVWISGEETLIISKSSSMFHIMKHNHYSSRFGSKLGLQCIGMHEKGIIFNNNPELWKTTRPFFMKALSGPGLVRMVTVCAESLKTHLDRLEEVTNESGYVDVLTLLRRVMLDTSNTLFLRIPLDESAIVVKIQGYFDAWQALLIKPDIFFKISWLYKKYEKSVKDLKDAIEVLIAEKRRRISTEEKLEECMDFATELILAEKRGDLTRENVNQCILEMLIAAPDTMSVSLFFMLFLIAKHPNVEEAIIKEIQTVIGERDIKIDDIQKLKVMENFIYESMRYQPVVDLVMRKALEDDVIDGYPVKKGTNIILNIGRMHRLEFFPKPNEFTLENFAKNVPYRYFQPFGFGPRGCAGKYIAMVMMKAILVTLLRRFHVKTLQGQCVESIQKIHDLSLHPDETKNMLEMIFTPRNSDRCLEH
Procedure: (b) Inhibition of aromatase obtained from human placenta
The activity was measured in accordance with the method described in Endocrine Research, 16 (2) 253 (1990).
The inhibition activity of the compound was determined based on the inhibition of ^3 H2 O to be released from [1,2-^3 H] androstenedione in human placenta microsomes.
1. In vitro inhibition of aromatase in human placenta microsomes:
IC50 value for ex vivo inhibition of aromatase from human placental microsomes was obtained in accordance with the above-mentioned experimental method (1-b), and the results obtained are shown in Table 1.

[3] = tested on: aldosterone production; assay: In vivo inhibition of aldosterone production in rats (ACTH-stimulated blood aldosterone); parameters: species or system rat; settings: 100 mg/kg, five rats, one-way ANOVA
Procedure: (b) In vivo inhibition of aldosterone production in rats:
The inhibitory activity was measured in accordance with the method described in J. Steroid Biochem., 34 567 (1989). The inhibitory activity of a test compound was determined based on inhibition of the blood aldosterone to be increased by stimulation by ACTH in rats. The amount of aldosterone was measured by RIA.
3. In vivo inhibition of aldosterone production in rats:
By the above-mentioned experimental method (4-b), aldosterone production inhibitory activity in rats was measured.
The statistical significance of value was analyzed by using one-way ANOVA. The results mean that the compounds of the present invention are highly safe compounds with few harmful side effects also in the in vivo test as well.

[4] = tested on: aldosterone production, rat adrenal cultured cells; assay: In vitro inhibition of aldosterone production (ACTH-stimulated rat adrenal cultured cells); assay type: cell-based; settings: read-out: IC50, Rat aldosterone inhibitory activity (B)
Procedure: (a) In vitro inhibition of aldosterone production:
The activity was measured in accordance with the method described in J. Vet. Pharmacol. Therap., 11 345 (1988). The inhibition activity of the test compound was determined based on the inhibition of aldosterone production produced by stimulation of first-generation of rat adrenal cultured cells by ACTH. The amount of aldosterone was measured by RIA.
(§1) 2. Selectivity of In vitro inhibition of rat ovarian aromatase and in vitro aldosterone production in rat:
(§2) IC50 values for in vitro inhibition of rat aromatase and […] inhibition of rat aldosterone production were measured in accordance with the above-mentioned experimental methods (1-a) and (4-a), respectively. The selectivity indicates a ratio of IC50 value for rat aldosterone production to IC50 value for rat aromatase.

[5] = target: T2, rat aromatase (rat ovarian microsomes) (Rattus norvegicus, UniProt P22443); assay: In vitro inhibition of aromatase obtained from rat ovary; assay type: biochemical
T2 construct: in rat ovarian microsomes; from tissue; host or cells: rat ovary, microsomes
T2 sequence (P22443 1-508): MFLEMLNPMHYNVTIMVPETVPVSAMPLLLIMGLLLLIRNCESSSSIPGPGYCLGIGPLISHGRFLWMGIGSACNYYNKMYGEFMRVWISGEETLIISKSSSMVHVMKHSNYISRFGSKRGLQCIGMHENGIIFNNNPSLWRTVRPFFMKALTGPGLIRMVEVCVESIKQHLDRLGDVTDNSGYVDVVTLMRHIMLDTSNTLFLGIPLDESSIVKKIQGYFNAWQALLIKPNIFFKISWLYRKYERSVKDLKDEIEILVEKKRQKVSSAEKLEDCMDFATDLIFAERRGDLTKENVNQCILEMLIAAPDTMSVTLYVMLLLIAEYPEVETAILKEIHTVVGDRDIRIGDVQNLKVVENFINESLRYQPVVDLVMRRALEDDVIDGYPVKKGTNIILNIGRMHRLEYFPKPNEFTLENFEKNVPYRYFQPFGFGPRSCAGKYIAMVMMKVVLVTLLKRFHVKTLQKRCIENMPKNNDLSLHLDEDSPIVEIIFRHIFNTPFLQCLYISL
Procedure: (a) Inhibition of aromatase obtained from rat ovary:
The activity was measured in accordance with the method described in J. Biol. Chem., 249 5364 (1974).
The IC50 value of the test compound on aromatase inhibition was determined based on inhibition of ^3 H2 O to be released from [1,2-^3 H] androstenedione in rat ovarian microsomes.
as §1, §2

[6] = Metabolism: plasma concentration of the non-changed compound after oral administration to rats; assay type: in vivo; settings: rat, 3 mg/kg oral
Description: From the results, it is understood that the compound of the present invention has an excellent oral absorbability and that the effect of the absorbed compound lasts long. Thus, the compound has a good profile as a medicine.

| IC50 [2] [nM] | IC50 [4] [nM] | IC50 ([5]; rat ovarian microsomes, in vitro, read-out: IC50, Rat aromatase inhibitory activity (A)) [nM] | Selectivity (B/A) ([5]; ratio of IC50 for rat aldosterone production to IC50 for rat aromatase) | half-life ([6]; read-out: extinction half time (T1/2) (converted)) [h] | Cmax ([6]; read-out: maximum value (Cmax) of the concentration of the non-changed compound in the plasma) [ng/mL] | Structure (SMILES) | IC50 [1] [nM] | inhibition of aldosterone production in rats (significance) [3] |
| --- | --- | --- | --- | --- | --- | --- | --- | --- |
| 0.03 |  |  |  |  |  | O=[N+]([O-])c1ccc(N(Cc2ccc(Br)cc2)n2cnnc2)cc1 [Example 12, 4-[N-(4-bromobenzyl)-N-(4-nitrophenyl)amino]-4H-1,2,4-triazole] |  | did not inhibit aldosterone production significantly |
| 0.13 | 2250 | 0.37 | 6100 | 11 | 2880 | N#Cc1ccc(N(Cc2ccc(Br)cc2)n2cnnc2)cc1 [Example 15, 4-[N-(4-bromobenzyl)-N-(4-cyanophenyl)amino]-4H-1,2,4-triazole] | 4000 | did not inhibit aldosterone production significantly |

| Structure (SMILES) | IC50 [2] [nM] | IC50 [4] [nM] | IC50 ([5]; rat ovarian microsomes, in vitro, read-out: IC50, Rat aromatase inhibitory activity (A)) [nM] | Selectivity (B/A) ([5]; ratio of IC50 for rat aldosterone production to IC50 for rat aromatase) | half-life ([6]; read-out: extinction half time (T1/2) (converted)) [h] | Cmax ([6]; read-out: maximum value (Cmax) of the concentration of the non-changed compound in the plasma) [ng/mL] | IC50 [1] [nM] | inhibition of aldosterone production in rats (significance) [3] |
| --- | --- | --- | --- | --- | --- | --- | --- | --- |
| O=[N+]([O-])c1ccc(CN(c2ccc([N+](=O)[O-])cc2)n2cnnc2)cc1 [Example 10, 4-[N-(4-nitrobenzyl)-N-(4-nitrophenyl)amino]-4H-1,2,4-triazole] | 0.11 |  |  |  |  |  | 7000 | did not inhibit aldosterone production significantly |
